Tested on: C. acnes
Test: Antibacterial activity: inhibition diameter of growth of C. acnes
Format: cell-based, Cutibacterium acnes
Settings: for Inhibition diameter (cm): C. acnes
From the text: In addition, the antibacterial activity (C. acnes) of these three products was compared according to the method described later in the present application. The inhibition diameter is proportional to the antibacterial efficacy of the product tested.
The results concerning the antibacterial effect of the active ingredient according to the invention compared to those of punicalagin, the main compound of the polyphenols present in the fruit of the pomegranate, are presented in Table 6.

O=C1O[C@H]2[C@@H]3OC(=O)c4cc(O)c(O)c(O)c4-c4c(O)c(O)c5oc(=O)c6c(c(O)c(O)c7oc(=O)c4c5c76)-c4c(cc(O)c(O)c4O)C(=O)OC[C@H]3OC(O)[C@@H]2OC(=O)c2cc(O)c(O)c(O)c2-c2c1cc(O)c(O)c2O (mixture of isomers) [Punicalagin]
antibacterial activity on growth of C. acnes (in words): has an antibacterial effect on the growth of C. acnes
Inhibition diameter (cm) (Deposit 15 μl): 1.1 ± 0.1 cm
Inhibition diameter (cm) (Deposit 30 μl): 1.4 ± 0.1 cm
